From the supplement of paper PMC5908809

How the values were obtained:
[1] = system: normal NK cells expanded with K562-aAPC; test: percent inhibition of viability; higher = more inhibition; conditions: 72 h, IL-2 2.5 ng/mL
Description: (§1)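 Drug sensitivity and resistance testing on K562-aAPC-expanded normal NK cells: 5 concentrations (10-fold steps over a 10,000-fold range), 72 h at 37 °C, viability by CellTiter-Glo normalised to DMSO and benzethonium chloride controls; DSS from the fitted curve.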

DERL-7 (IL-2 2.5 ng/mL) [2] = test: as above; conditions: 72 h
IMC-1 (IL-2 20 ng/mL) [3] = test: as above; conditions: 72 h
KAI3 (IL-2 2.5 ng/mL) [4] = test: as above; conditions: 72 h
KHYG-1 (IL-2 2.5 ng/mL) [5] = test: as above; conditions: 72 h
NK-92 (IL-2 2.5 ng/mL) [6] = test: as above; conditions: 72 h
NK-YS (IL-2 2.5 ng/mL) [7] = test: as above; conditions: 72 h
NKL (IL-2 2.5 ng/mL) [8] = test: as above; conditions: 72 h
SNK-6 (IL-2 2.5 ng/mL) [9] = test: as above; conditions: 72 h
YT (IL-2 2.5 ng/mL) [10] = test: as above; conditions: 72 h
[11] = system: normal primary NK cells, pool 1 (3 donors) (IL-2 2.5 ng/mL); test: as above; conditions: 72 h
[12] = system: normal primary NK cells, pool 1 (3 donors), resting (IL-2 0 ng/mL); test: as above; conditions: 72 h
[13] = system: normal primary NK cells, pool 2 (3 donors) (IL-2 2.5 ng/mL); test: as above; conditions: 72 h
[14] = system: normal primary NK cells, pool 3 (3 donors) (IL-2 2.5 ng/mL); test: as above; conditions: 72 h
[15] = system: normal NK cells expanded with K562-aAPC; test: drug sensitivity score (DSS) (DSS units); higher = more sensitive; extreme values may be limits of the assay; conditions: 72 h; IL-2 2.5 ng/mL
Description: as §1

DERL-7 (IL-2 2.5 ng/mL) [16] = test: as above; conditions: 72 h
IMC-1 (IL-2 20 ng/mL) [17] = test: as above; conditions: 72 h
KAI3 (IL-2 2.5 ng/mL) [18] = test: as above; conditions: 72 h
KHYG-1 (IL-2 2.5 ng/mL) [19] = test: as above; conditions: 72 h
NK-92 (IL-2 2.5 ng/mL) [20] = test: as above; conditions: 72 h
NK-YS (IL-2 2.5 ng/mL) [21] = test: as above; conditions: 72 h
NKL (IL-2 2.5 ng/mL) [22] = test: as above; conditions: 72 h
SNK-6 (IL-2 2.5 ng/mL) [23] = test: as above; conditions: 72 h
YT (IL-2 2.5 ng/mL) [24] = test: as above; conditions: 72 h
[25] = system: normal primary NK cells, pool 1 (3 donors) (IL-2 2.5 ng/mL); test: as above; conditions: 72 h
[26] = system: normal primary NK cells, pool 1 (3 donors), resting (IL-2 0 ng/mL); test: as above; conditions: 72 h
[27] = system: normal primary NK cells, pool 2 (3 donors) (IL-2 2.5 ng/mL); test: as above; conditions: 72 h
[28] = system: normal primary NK cells, pool 3 (3 donors) (IL-2 2.5 ng/mL); test: as above; conditions: 72 h

Cc1c2oc3c(C)ccc(C(=O)N[C@@H]4C(=O)N[C@H](C(C)C)C(=O)N5CCC[C@H]5C(=O)N(C)CC(=O)N(C)[C@@H](C(C)C)C(=O)O[C@@H]4C)c3nc-2c(C(=O)N[C@@H]2C(=O)N[C@H](C(C)C)C(=O)N3CCC[C@H]3C(=O)N(C)CC(=O)N(C)[C@@H](C(C)C)C(=O)O[C@@H]2C)c(N)c1=O [Dactinomycin] (max concentration tested 1000 nM)
percent inhibition of viability [%]
Conditions | 0.1 nM | 1 nM | 10 nM | 100 nM | 1000 nM
DERL-7 (IL-2 2.5 ng/mL) [2] | -0.87 | 44.9 | 83 | 101 | 101
IMC-1 (IL-2 20 ng/mL) [3] | -6.77 | -14.7 | 38.1 | 100 | 101
KAI3 (IL-2 2.5 ng/mL) [4] | -6.19 | 34.4 | 52.9 | 103 | 107
KHYG-1 (IL-2 2.5 ng/mL) [5] | -3.25 | 36.4 | 71 | 106 | 108
NK-92 (IL-2 2.5 ng/mL) [6] | -12.8 | -6.87 | 22 | 87.4 | 105
NK-YS (IL-2 2.5 ng/mL) [7] | 5.62 | 72.3 | 94.4 | 106 | 107
NKL (IL-2 2.5 ng/mL) [8] | -4.78 | 72.4 | 84.8 | 108 | 110
SNK-6 (IL-2 2.5 ng/mL) [9] | 33.9 | 71.2 | 81.7 | 99.6 | 78.6
YT (IL-2 2.5 ng/mL) [10] | 0.56 | 51 | 97.4 | 107 | 108
[1] | 1.4 | 5.24 | 28.6 | 101 | 101
[11] | 5.89 | 7.37 | 35.9 | 98.4 | 98.6
[12] | -15.9 | 13.6 | 67.8 | 91.7 | 90.8
[13] | -13.2 | 8.51 | 64.2 | 94.5 | 95.7
[14] | -10.8 | 5.15 | 39.6 | 98.5 | 99.8

Conditions | drug sensitivity score
DERL-7 (IL-2 2.5 ng/mL) [16] | 33.6
IMC-1 (IL-2 20 ng/mL) [17] | 23.2
KAI3 (IL-2 2.5 ng/mL) [18] | 26.6
KHYG-1 (IL-2 2.5 ng/mL) [19] | 30.4
NK-92 (IL-2 2.5 ng/mL) [20] | 18.8
NK-YS (IL-2 2.5 ng/mL) [21] | 39.5
NKL (IL-2 2.5 ng/mL) [22] | 38.8
SNK-6 (IL-2 2.5 ng/mL) [23] | 38.1
YT (IL-2 2.5 ng/mL) [24] | 36.5
[15] | 22.2
[25] | 22
[26] | 25.8
[27] | 25.3
[28] | 22.5

O=C(O)c1ccc(Nc2ncc3c(n2)-c2ccc(Cl)cc2C(c2c(F)cccc2F)=NC3)cc1 [MLN-8054] (max concentration tested 10000 nM)
percent inhibition of viability [%]
Conditions | 1 nM | 10 nM | 100 nM | 1000 nM | 10000 nM
DERL-7 (IL-2 2.5 ng/mL) [2] | -1.42 | -2.27 | -2.98 | 42.2 | 63.5
IMC-1 (IL-2 20 ng/mL) [3] | 2.52 | 4.23 | 18.1 | 27.9 | 87.8
KAI3 (IL-2 2.5 ng/mL) [4] | 5.5 | 5.3 | 20.2 | 51.7 | 71.4
KHYG-1 (IL-2 2.5 ng/mL) [5] | 4.03 | 6.1 | 20 | 64.1 | 79
NK-92 (IL-2 2.5 ng/mL) [6] | 7.92 | 3.31 | 17.5 | 33.8 | 65.2
NK-YS (IL-2 2.5 ng/mL) [7] | 5.25 | 3.3 | 40.5 | 74 | 86.5
NKL (IL-2 2.5 ng/mL) [8] | 12.4 | 12.3 | 30.5 | 66.5 | 36.9
SNK-6 (IL-2 2.5 ng/mL) [9] | -1.52 | 0.61 | 53.3 | 78.6 | 81.5
YT (IL-2 2.5 ng/mL) [10] | 4.9 | 5.88 | 21 | 51.3 | 62
[1] | 0.34 | 1.46 | -1.49 | 39.7 | 57.7
[11] | -5.64 | -11.5 | -5.12 | -17.1 | 3.94
[12] | 19.2 | -7.07 | 0.26 | -14.7 | 13.3
[13] | 1.69 | -1.38 | 2.04 | -0.41 | 21.9
[14] | 5.09 | 2.04 | 1 | 3.1 | 12.9

Conditions | drug sensitivity score
DERL-7 (IL-2 2.5 ng/mL) [16] | 8.47
IMC-1 (IL-2 20 ng/mL) [17] | 7.96
KAI3 (IL-2 2.5 ng/mL) [18] | 12.2
KHYG-1 (IL-2 2.5 ng/mL) [19] | 14.3
NK-92 (IL-2 2.5 ng/mL) [20] | 8.69
NK-YS (IL-2 2.5 ng/mL) [21] | 19
NKL (IL-2 2.5 ng/mL) [22] | 14
SNK-6 (IL-2 2.5 ng/mL) [23] | 21.2
YT (IL-2 2.5 ng/mL) [24] | 11.9
[15] | 7.83
[25] | 0
[26] | 0.03
[27] | 0.7
[28] | 0.29
